# Source: PMC7402526, “An in vitro quantitative systems pharmacology approach for deconvolving mechanisms of drug-induced, multilineage cytopenias” (PLoS Computational Biology, 2020)
# Assays:
# [1] = test system: neutrophils (neutrophil-lin); assay: MLTA, Neut: concentration-response and QSP model fit; format: cell-based, human; details: Homo sapiens, Neutrophil, 144 h
# Experimental: (§1) A custom optimized cytokine cocktail was developed using commercially available cytokines (Peprotech, New Jersey) to facilitate simultaneous multi-lineage differentiation and self-renewal of freeze-thawed primary human bone marrow-derived CD34+ cells in SFEM II media (cells and media from StemCell Technologies, Vancouver). Cultures were carried out in ultra-low attachment 96-well plates (Corning, New York) with test article added on day 0 and cultured at 37°C, 85% relative humidity, and 5% CO2 for six days before interrogating drug impact via 17-parameter flow cytometry.
# (§2) The flow cytometry panel used to define hematopoietic subsets was composed of CD34-PECy7, CD90-PECY5, CD38-AF488, CD371-PE, CD45Ra-BV421, CD14-BV605, CD42b-AF647, CD10-PEDazzle594, CD235a-PerCPCy5.5 (BioLegend, California), CD15-BUV395, CD41a-APCH7, CD71-BV786 (BD Biosciences, California), and DAPI for dead cell exclusion (ThermoFisher, California). In short, Day 6 cells were harvested, FcR-blocked (FcR binding inhibitor, ThermoFisher), surface-stained, then analyzed in a buffer containing TruCount Control Beads using a BD LSR Fortessa SORP fitted with a high-throughput sampler (BD Biosciences, California). Data was analyzed in Diva 6.0.2 and exported to CSV where after all cell data was transformed to cell per mL then normalized on a per-donor basis to untreated control wells to determine drug impact.
# (§3) Donor material was collected and cultured as described above. The number of replicate donor samples per drug ranged from 2–7 and varied per drug (S1 Table). Drug treatment was added at time 0 and cells were maintained in culture for 6 days. Concentrations tested for each drug compound are contained in S1 Table. Concentrations were selected to span a range that is clinically useful. Following treatment, cell populations were measured using flow cytometry. We extracted cell counts from flow cytometry data, normalized to bead counts, and corrected for well volume.
# (§4) Each well was normalized to the average of six vehicle control wells. For drugs that were tested across multiple runs of the assay, vehicle-normalized donor data were pooled, and we used the average of these pooled data for further modeling. Normalized data used as model inputs are included in S1 Table.
# (§5) We implemented drug effects using an Emax model for the drug’s effect on each cell type. The 13 maximum effect parameters (EmaxT,C) are unitless and can vary between 0 and 2 and where a subscript, C, represents one of the previously described 13 cell types. We adapted a traditional Emax model using the equations below. We interpreted EmaxT values less than or equal to one as anti-proliferative, and EmaxT values greater than one as indicating a cell-killing mechanism in addition to anti-proliferation. The relationships for these effects are included in the model using the following equations. Eq 2 describes the drug anti-proliferative effect in the net proliferation rate for a given cell type. Eq 3 describes the cell-killing EmaxCK effect.
# (§6) Towards the estimation of mechanistic parameters, we considered different formulations: (a) weighting the objective value to prioritize fitting dead cells and (b) using regularization methodology to encourage a parsimonious solution. We assessed the contributions of these formulations using mean-squared error and goodness of fit plots for drugs with known mechanisms. […] Further, we used L1 regularization to penalize parameters […] to help identify a parsimonious set of parameters to explain drug effects.
# [2] = test system: late erythroid cells (Eryth II); assay: MLTA, ErythII: concentration-response and QSP model fit; format: cell-based, human; details: Homo sapiens, 144 h
# Experimental: as §1, §2, §3, §4, §5, §6
# [3] = test system: granulocyte progenitor (Gran-lin prog); assay: MLTA, GranP: concentration-response and QSP model fit; format: cell-based, human; details: Homo sapiens, 144 h
# Experimental: as §1, §2, §3, §4, §5, §6
# [4] = test system: monocyte progenitors (monocyte prog); assay: MLTA, MonoP: concentration-response and QSP model fit; format: cell-based, human; details: Homo sapiens, Monocyte, 144 h
# Experimental: as §1, §2, §3, §4, §5, §6
# [5] = test system: total viable cells (totalViableCells); assay: MLTA, total live cells concentration-response; format: cell-based; details: Homo sapiens, 144 h, 6 days, normalized to vehicle control, read-out: total_live normalized cell count
# Experimental: as §1, §2, §3, §4
# [6] = test system: early erythroid cells (Eryth I); assay: MLTA, ErythI: concentration-response and QSP model fit; format: cell-based, human; details: Homo sapiens, 144 h
# Experimental: as §1, §2, §3, §4, §5, §6
# [7] = test system: MK cells (MK-lin); assay: MLTA, MK: concentration-response and QSP model fit; format: cell-based, human; details: Homo sapiens, 144 h
# Experimental: as §1, §2, §3, §4, §5, §6
# [8] = QSP model fit of 6-day MLTA data
structure (smiles),measurement,setting,value
CN(C)C(=O)c1cc2cnc(Nc3ccc(N4CCNCC4)cn3)nc2n1C1CCCC1 [ribociclib],EC50,[1]; [8],178 nM
same,activity at 0.0002 µM,"[1]; dose 0.2 nM, 6 days, normalized to vehicle control, read-out: Neut normalized cell count",77.2%
same,activity at 0.001 µM,"[1]; dose 1 nM, 6 days, normalized to vehicle control, read-out: Neut normalized cell count",83.1%
same,activity at 0.005 µM,"[1]; dose 5 nM, 6 days, normalized to vehicle control, read-out: Neut normalized cell count",96.4%
same,activity at 0.025 µM,"[1]; dose 25 nM, 6 days, normalized to vehicle control, read-out: Neut normalized cell count",65.4%
same,activity at 0.1 µM,"[1]; dose 100 nM, 6 days, normalized to vehicle control, read-out: Neut normalized cell count",52.7%
same,activity at 0.5 µM,"[1]; dose 500 nM, 6 days, normalized to vehicle control, read-out: Neut normalized cell count",25.1%
same,activity at 2.5 µM,"[1]; dose 2500 nM, 6 days, normalized to vehicle control, read-out: Neut normalized cell count",4.85%
same,Emax,"[1]; parameter from QSP model fitting, read-out: Emax_drug_Neut",13.9%
same,EC50,"[2]; QSP model fit of 6-day MLTA data, read-out: EC50ErythII",222 nM
same,activity at 0.0002 µM,"[2]; dose 0.2 nM, 6 days, normalized to vehicle control, read-out: ErythII normalized cell count",84.3%
same,activity at 0.001 µM,"[2]; dose 1 nM, 6 days, normalized to vehicle control, read-out: ErythII normalized cell count",97.7%
same,activity at 0.005 µM,"[2]; dose 5 nM, 6 days, normalized to vehicle control, read-out: ErythII normalized cell count",113%
same,activity at 0.025 µM,"[2]; dose 25 nM, 6 days, normalized to vehicle control, read-out: ErythII normalized cell count",81.4%
same,activity at 0.1 µM,"[2]; dose 100 nM, 6 days, normalized to vehicle control, read-out: ErythII normalized cell count",79.8%
same,activity at 0.5 µM,"[2]; dose 500 nM, 6 days, normalized to vehicle control, read-out: ErythII normalized cell count",66.7%
same,activity at 2.5 µM,"[2]; dose 2500 nM, 6 days, normalized to vehicle control, read-out: ErythII normalized cell count",33.6%
same,Emax,"[2]; parameter from QSP model fitting, read-out: Emax_drug_ErythroidII",10.8%
same,EC50,"[3]; QSP model fit of 6-day MLTA data, read-out: EC50GranP",21.4 nM
same,activity at 0.0002 µM,"[3]; dose 0.2 nM, 6 days, normalized to vehicle control, read-out: GranPs normalized cell count",87.1%
same,activity at 0.001 µM,"[3]; dose 1 nM, 6 days, normalized to vehicle control, read-out: GranPs normalized cell count",105%
same,activity at 0.005 µM,"[3]; dose 5 nM, 6 days, normalized to vehicle control, read-out: GranPs normalized cell count",104%
same,activity at 0.025 µM,"[3]; dose 25 nM, 6 days, normalized to vehicle control, read-out: GranPs normalized cell count",81.3%
same,activity at 0.1 µM,"[3]; dose 100 nM, 6 days, normalized to vehicle control, read-out: GranPs normalized cell count",70.3%
same,activity at 0.5 µM,"[3]; dose 500 nM, 6 days, normalized to vehicle control, read-out: GranPs normalized cell count",34.4%
same,activity at 2.5 µM,"[3]; dose 2500 nM, 6 days, normalized to vehicle control, read-out: GranPs normalized cell count",10.8%
same,Emax,"[3]; parameter from QSP model fitting, read-out: Emax_drug_GranP",6.43%
same,activity at 0.0002 µM,"[4]; dose 0.2 nM, 6 days, normalized to vehicle control, read-out: MonoPs normalized cell count",100%
same,activity at 0.001 µM,"[4]; dose 1 nM, 6 days, normalized to vehicle control, read-out: MonoPs normalized cell count",108%
same,activity at 0.005 µM,"[4]; dose 5 nM, 6 days, normalized to vehicle control, read-out: MonoPs normalized cell count",99.8%
same,activity at 0.025 µM,"[4]; dose 25 nM, 6 days, normalized to vehicle control, read-out: MonoPs normalized cell count",80.2%
same,activity at 0.1 µM,"[4]; dose 100 nM, 6 days, normalized to vehicle control, read-out: MonoPs normalized cell count",45.6%
same,activity at 0.5 µM,"[4]; dose 500 nM, 6 days, normalized to vehicle control, read-out: MonoPs normalized cell count",16.7%
same,activity at 2.5 µM,"[4]; dose 2500 nM, 6 days, normalized to vehicle control, read-out: MonoPs normalized cell count",6.97%
same,Emax,"[4]; parameter from QSP model fitting, read-out: Emax_drug_MonoP",0.0352%
same,viability at 0.0002 µM,[5]; dose 0.2 nM,90%
same,viability at 0.001 µM,[5]; dose 1 nM,97.8%
same,viability at 0.005 µM,[5]; dose 5 nM,106%
same,viability at 0.025 µM,[5]; dose 25 nM,79.4%
same,viability at 0.1 µM,[5]; dose 100 nM,66.6%
same,viability at 0.5 µM,[5]; dose 500 nM,42.1%
same,viability at 2.5 µM,[5]; dose 2500 nM,17.8%
same,activity at 0.0002 µM,"[6]; dose 0.2 nM, 6 days, normalized to vehicle control, read-out: ErythI normalized cell count",101%
same,activity at 0.001 µM,"[6]; dose 1 nM, 6 days, normalized to vehicle control, read-out: ErythI normalized cell count",102%
same,activity at 0.005 µM,"[6]; dose 5 nM, 6 days, normalized to vehicle control, read-out: ErythI normalized cell count",108%
same,activity at 0.025 µM,"[6]; dose 25 nM, 6 days, normalized to vehicle control, read-out: ErythI normalized cell count",85.8%
same,activity at 0.1 µM,"[6]; dose 100 nM, 6 days, normalized to vehicle control, read-out: ErythI normalized cell count",69%
same,activity at 0.5 µM,"[6]; dose 500 nM, 6 days, normalized to vehicle control, read-out: ErythI normalized cell count",31.2%
same,activity at 2.5 µM,"[6]; dose 2500 nM, 6 days, normalized to vehicle control, read-out: ErythI normalized cell count",9.42%
same,Emax,"[6]; parameter from QSP model fitting, read-out: Emax_drug_ErythroidI",0.05%
same,EC50,[7]; [8],2040 nM
same,activity at 0.0002 µM,"[7]; dose 0.2 nM, 6 days, normalized to vehicle control, read-out: MK normalized cell count",102%
same,activity at 0.001 µM,"[7]; dose 1 nM, 6 days, normalized to vehicle control, read-out: MK normalized cell count",98.3%
same,activity at 0.005 µM,"[7]; dose 5 nM, 6 days, normalized to vehicle control, read-out: MK normalized cell count",91.7%
same,activity at 0.025 µM,"[7]; dose 25 nM, 6 days, normalized to vehicle control, read-out: MK normalized cell count",83.6%
same,activity at 0.1 µM,"[7]; dose 100 nM, 6 days, normalized to vehicle control, read-out: MK normalized cell count",101%
same,activity at 0.5 µM,"[7]; dose 500 nM, 6 days, normalized to vehicle control, read-out: MK normalized cell count",64.4%
same,activity at 2.5 µM,"[7]; dose 2500 nM, 6 days, normalized to vehicle control, read-out: MK normalized cell count",27.7%
same,Emax,"[7]; parameter from QSP model fitting, read-out: Emax_drug_MK",4.81%
